Where “and” joins values, the source holds several entries; their conditions need not be identical. Equal entries are not always repeated. One block for each compound: values may come before it.
Legend:
Molt-4 cells = test: Cell Viability Assay (CellTiter-Glo) in Molt-4 cells (counter screen); format: cell-based; details: 24 hours, 10% Human Serum
Description: (§1) The acute lymphoblastic leukemia (ALL) human cell line RS4;11 (ATCC, Manassas VA) was used as the primary human cell line to assess the cellular activity of compound of the present Examples in vitro and their efficacy in vivo. […] The acute lymphoblastic leukemia cell line Molt-4, which is derived from immature T-lymphoid cells (T-ALL), was used as a counter screen assay.
(§2) 3000 Cells (0.1×10^6/mL) were seeded in each well of 384-well plate and were treated for 24 hours in a humidified chamber with 5% CO2. Cell viability was determined by CellTiter-Glo as described by the manufacturer's instructions (Promega Corporation, Madison, WI, USA).

RS4;11 cells = test: Cell Viability Assay (CellTiter-Glo) in RS4;11 cell line; format: cell-based; details: 24 hours, 10% Human Serum
Description: as §1, §2

[1] = Bioavailability study: pharmacokinetics after single intravenous or oral dose in mouse; format: in vivo, CD-1 mice (male)
Description: Studies were conducted to evaluate the pharmacokinetic profiles of Example 25 herein and Example 2 in WO 2019/040550 after single intravenous or oral dose in mouse. CD-1 mice (male) were obtained from Charles River Laboratories (Wilmington, MA).
The pharmacokinetics of Example 25 herein and Example 2 in WO 2019/040550 were evaluated following single 1 mg/kg intravenous or oral doses in mouse. Example 25 herein and Example 2 in WO 2019/040550 were prepared as a solution in DMSO:Tween 80:PEG-400:Dextrose 5% in Water (5:5:20:70, v/v) for the IV and oral dose mouse studies. The intravenous dose was administered as a slow bolus to the penile vein under isoflurane anesthesia. The oral doses were administrated by gavage. Serial blood samples were obtained […], 0.25, 0.5, 1.0, 4, 6, 9, 12, 24, 32 and 48 hours post dosing and […]. Plasma was separated by centrifugation and stored frozen (<−15° C.) until analysis.
HPLC-MS/MS bioanalytical methods were utilized for the quantitation of Example 25 herein and Example 2 in WO 2019/040550 concentration in plasma. The analytical methods used protein precipitation to extract compound from plasma. All samples were combined with a minimum two volume equivalents of organic solvent containing internal standard, vortexed and then centrifuged to pellet the proteins. Supernatants were used for subsequent analysis by liquid chromatography-tandem mass spectrometry (LC-MS/MS). Studies involving quantitative analysis employed spiked standards in plasma that were processed simultaneously with the samples.
Analytes were separated using reverse phase chromatography on a C8 or C18 column prior to analysis on an API5500m (or higher) mass spectrometer with a Turbo-Ion Spray source. Peak areas were determined using Sciex Analyst™ 1.6 (or higher) software or Sound Analytics DiscoveryQuant™ 2.0 (or higher) software. Actual concentrations (when required) were calculated by regression analysis of the peak area ratio (parent/internal standard) of the spiked standards versus concentrations.
Peak plasma concentrations (Cmax) and the time to peak plasma concentration (Tmax) were determined directly from the plasma concentration data for each animal. The compound plasma concentration data were submitted to multi-exponential curve fitting using WinNonlin software. The area under the plasma concentration-time curve from 0 to t hours after dosing (AUC0-t, t=time of the last measurable plasma concentration) was calculated using the linear trapezoidal rule. The residual area extrapolated to infinity, determined as the final measured plasma concentration (Ct) divided by the terminal plasma elimination rate constant (β), was added to the AUC0-t to produce the total area under the curve (AUC0-∞). The apparent total plasma clearance (CLp) was calculated by dividing the administered dose by the AUC0-∞. Half-life (t1/2) was determined with the following calculation: t1/2=ln (2)/elimination rate constant. The initial volume of distribution (Vc) was calculated as the dose divided by the extrapolated concentration at time=0 (C0). The volume of distribution at steady state, Vss, was estimated as a product of the total plasma clearance (CLp) and the mean residence time (MRT); the terminal-phase volume of distribution, Vβ, was derived from the total plasma clearance value (CLp) divided by the terminal plasma elimination rate constant ((3). Oral bioavailability (F) was calculated as the dose-normalized AUC0-∞ (AUC0-∞/D) from the oral dose divided by the corresponding dose normalized AUC0-∞ from intravenous dosing.

EC50 (RS4;11 cells): 0.329 nM
SMILES: CC1(C)CC(c2ccc(Cl)cc2)=C2CN3CCN(c4ccc(C(=O)NS(=O)(=O)c5ccc(NC[C@@H]6CC[C@@H](O)CO6)c([N+](=O)[O-])c5)c(N5CCCOc6nc7[nH]ccc7cc65)c4)C[C@H]3COCCCO[C@@H]2C1 [Example 27, 4-((4aS,10aR)-14-(4-chlorophenyl)-12,12-dimethyl-1,2,4a,5,8,9,10a,11,13,15-decahydro-7H,12H-benzo[f]pyrazino[2,1-c][1,8]dioxa[4]azacycloundecin-3(4H)-yl)-2-(3,4-dihydro-2H-pyrrolo[3′,2′:5,6]pyrido[2,3-b][1,4]oxazepin-1(7H)-yl)-N-((4-((((2S,5R)-5-hydroxytetrahydro-2H-pyran-2-yl)methyl)amino)-3-nitrophenyl)sulfonyl)benzamide]
EC50 (Molt-4 cells): 535 nM

SMILES: C[C@H]1CCC(CNc2ccc(S(=O)(=O)NC(=O)c3ccc(N4CCN5CC6=C(c7ccc(Cl)cc7)CC(C)(C)C[C@H]6OCCCOC[C@@H]5C4)cc3N3CCCOc4nc5[nH]ccc5cc43)cc2[N+](=O)[O-])OC1 (stereo partly drawn) [Example 23, 4-((4aS,10aR)-14-(4-chlorophenyl)-12,12-dimethyl-1,2,4a,5,8,9,10a,11,13,15-decahydro-7H,12H-benzo[f]pyrazino[2,1-c][1,8]dioxa[4]azacycloundecin-3(4H)-yl)-2-(3,4-dihydro-2H-pyrrolo[3′,2′:5,6]pyrido[2,3-b][1,4]oxazepin-1(7H)-yl)-N-((4-((((2R,5S)-5-methyltetrahydro-2H-pyran-2-yl)methyl)amino)-3-nitrophenyl)sulfonyl)benzamide]
EC50 (Molt-4 cells): > 10000 nM

AUC ([1]; IV 1 mg/kg, individual mouse): 11200 ng·h/mL and 12900 ng·h/mL
CLp ([1]; IV 1 mg/kg, individual mouse): 1.28 mL/min/kg
MRT ([1]; IV 1 mg/kg, individual mouse): 10 h
Vβ ([1]; IV 1 mg/kg, individual mouse): 1.0 L/kg and 0.90 L/kg
AUC ([1]; PO 1 mg/kg, individual mouse): 4330 ng·h/mL and 4490 ng·h/mL
Tmax ([1]; PO 1 mg/kg, individual mouse): 4.0 h
t1/2 ([1]; PO 1 mg/kg, individual mouse): 8.7 h and 10 h
Tmax ([1]; PO 1 mg/kg, mean): 4.0 h
SMILES: CO[C@@H]1CC[C@@H](CNc2ccc(S(=O)(=O)NC(=O)c3ccc(N4CCN5CC6=C(c7ccc(Cl)cc7)CC(C)(C)C[C@H]6OCCCOC[C@@H]5C4)cc3N3CCCOc4nc5[nH]ccc5cc43)cc2[N+](=O)[O-])OC1 [Example 25, 4-((4aS,10aR)-14-(4-chlorophenyl)-12,12-dimethyl-1,2,4a,5,8,9,10a,11,13,15-decahydro-7H,12H-benzo[f]pyrazino[2,1-c][1,8]dioxa[4]azacycloundecin-3(4H)-yl)-2-(3,4-dihydro-2H-pyrrolo[3′,2′:5,6]pyrido[2,3-b][1,4]oxazepin-1(7H)-yl)-N-((4-((((2S,5R)-5-methoxytetrahydro-2H-pyran-2-yl)methyl)amino)-3-nitrophenyl)sulfonyl)benzamide]

SMILES: COC1(CNc2ccc(S(=O)(=O)NC(=O)c3ccc(N4CCN5CC6=C(c7ccc(Cl)cc7)CC(C)(C)C[C@H]6OCCCOC[C@@H]5C4)cc3N3CCCOc4nc5[nH]ccc5cc43)cc2[N+](=O)[O-])CCOCC1 [Example 26, 4-((4aS,10aR)-14-(4-chlorophenyl)-12,12-dimethyl-1,2,4a,5,8,9,10a,11,13,15-decahydro-7H,12H-benzo[f]pyrazino[2,1-c][1,8]dioxa[4]azacycloundecin-3(4H)-yl)-2-(3,4-dihydro-2H-pyrrolo[3′,2′:5,6]pyrido[2,3-b][1,4]oxazepin-1(7H)-yl)-N-((4-(((4-methoxytetrahydro-2H-pyran-4-yl)methyl)amino)-3-nitrophenyl)sulfonyl)benzamide]
EC50 (Molt-4 cells): > 10000 nM
